From US20210322386A1, “METHODS OF DELAYING AND REVERSING ALZHEIMER'S DISEASE PROGRESSION” (Loma Linda University, priority 2018, published 2021)
“Also recorded” adds a separate entry of the source. Read-outs that look alike come from different tables or passages of the source.

Columns and labels:
CYP27A1 enzyme = biological target: T1, CYP27A1 enzyme (Homo sapiens, UniProt Q02318); settings: from Mast et al., Mol. Pharmacol., 2015, cited from earlier work
T1 sequence (Q02318 34-531): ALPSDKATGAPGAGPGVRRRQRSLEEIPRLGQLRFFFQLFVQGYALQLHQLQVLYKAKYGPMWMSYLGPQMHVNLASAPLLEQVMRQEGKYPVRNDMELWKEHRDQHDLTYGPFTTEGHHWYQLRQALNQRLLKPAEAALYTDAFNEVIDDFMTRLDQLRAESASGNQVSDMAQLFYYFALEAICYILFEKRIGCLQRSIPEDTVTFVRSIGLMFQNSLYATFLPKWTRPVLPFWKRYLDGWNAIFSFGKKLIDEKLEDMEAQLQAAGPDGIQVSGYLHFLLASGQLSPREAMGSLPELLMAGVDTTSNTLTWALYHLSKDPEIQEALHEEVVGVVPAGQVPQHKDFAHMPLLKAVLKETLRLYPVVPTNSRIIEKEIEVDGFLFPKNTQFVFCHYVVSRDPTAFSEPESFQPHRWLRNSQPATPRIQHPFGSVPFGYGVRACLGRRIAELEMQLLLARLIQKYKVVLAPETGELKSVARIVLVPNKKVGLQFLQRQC

12-week old male mice = experiment: Pilot study of safety profile of anastrozole in mice (Appearance/Attitude Scores, weight gain, postmortem organs); type: in vivo
Experimental: A pilot study was carried out to assess the safety profile and cognitive impact of anastrozole in 12-week old male mice. Mice were fed anastrozole or placebo (vehicle alone) for a period of 8 weeks using a hydrogel as the means of administration (n=6 per group). Because of the poor palatability of anastrozole in its available form, it was administered through a hydration gel especially designed for medication delivery (LabGel-ClearH20 catalog # 71-02-1081; Portland, Me.), LabGel consists of purified water, sucralose, fruit and natural flavoring, hydrocolloids, potassium sorbate, sodium benzoate, and phosphoric acid. For each 236 mL dose of LabGel, 45 mg of anastrozole powder, 40 μL of red food coloring, and 1 mL of propylene glycol are thoroughly mixed and the resulting anastrozole is distributed into mouse cages at 3 grams LabGel/mouse/day in a custom--made container easily accessible to the mice. The final concentration of anastrozole in the LabGel is 0.1906 mg/mL and it is kept fresh by replacing it every 48 hours. In the experiment, mice consumed about 2 mL/mouse/day of LabGel equating to about 0.4 mg anastrozole/animal/day, which is consistent with the literature (Overk et al., J Neurosci Methods, 195: 194-9, 2011). Mice were monitored for health decline signs, and given an Appearance Score (Normal skin; skin tent on dorsum; hunched posture; eyes sunken in and severe skin tent; and failure to right self) and an Attitude Score (Normal; decreased activity; lethargy; non-responsiveness; and failure to flee when hand present in cage), as described (Bekkevold et al., J Am Assoc Lab Anim Sci, 52: 233-9, 2013).

[1] = tested on: mice fed a high-cholesterol diet; experiment: Y-maze test of cognitive function in mice fed a high-cholesterol diet; type: in vivo; settings: mice on high-cholesterol diet (standard chow containing 0.5% cholesterol), 8 weeks of treatment, about 0.4 mg anastrozole/animal/day in LabGel
Experimental: A pilot study was carried out to assess the safety profile and cognitive impact of anastrozole in 12-week old male mice. Mice were fed anastrozole or placebo (vehicle alone) for a period of 8 weeks using a hydrogel as the means of administration (n=6 per group). Because of the poor palatability of anastrozole in its available form, it was administered through a hydration gel especially designed for medication delivery (LabGel-ClearH20 catalog # 71-02-1081; Portland, Me.), LabGel consists of purified water, sucralose, fruit and natural flavoring, hydrocolloids, potassium sorbate, sodium benzoate, and phosphoric acid. […] Mice were monitored for health decline signs, and given an Appearance Score (Normal skin; skin tent on dorsum; hunched posture; eyes sunken in and severe skin tent; and failure to right self) and an Attitude Score (Normal; decreased activity; lethargy; non-responsiveness; and failure to flee when hand present in cage), as described (Bekkevold et al., J Am Assoc Lab Anim Sci, 52: 233-9, 2013).
12-week old male mice on either a normal or high-cholesterol diet were tested on the same day with an interval of 2 hours between the training 15 min) and testing (5 min) phases. Data were analyzed by one-way ANOVA and Bonferroni post-hoc test. […]

Structure (SMILES): Cc1cccc([C@H](C)c2cnc[nH]2)c1C [dexmedetomidine]
- inhibition of the CYP27A1 enzyme (CYP27A1 enzyme): Inhibitors of the CYP27A1 enzyme

Structure (SMILES): C[C@@H](c1nc(-c2ccc(C#N)cc2)cs1)[C@](O)(Cn1cncn1)c1ccc(F)cc1F [ravuconazole]
- inhibition of the CYP27A1 enzyme (CYP27A1 enzyme): Inhibitors of the CYP27A1 enzyme

Structure (SMILES): N#Cc1ccc(C2CCCc3cncn32)cc1 (stereo not shown) [fadrozole]
- inhibition of the CYP27A1 enzyme (CYP27A1 enzyme): Inhibitors of the CYP27A1 enzyme

Structure (SMILES): CC(C)(C#N)c1cc(Cn2cncn2)cc(C(C)(C)C#N)c1 [anastrozole]
- inhibition of the CYP27A1 enzyme (CYP27A1 enzyme): Inhibitors of the CYP27A1 enzyme
- inhibition of the CYP27A1 enzyme (CYP27A1 enzyme; listed as Anastrozole): shown to inhibit the CYP27A1 enzyme
- signs of health decline (Appearance Score and Attitude Score) (12-week old male mice; 8 weeks, about 0.4 mg anastrozole/animal/day in LabGel): No signs of health decline
- postmortem evaluation of major organs (12-week old male mice; after 8 weeks): no signs of toxicity
- weight gain progression vs vehicle group (12-week old male mice; throughout the 8-week study): identical between both groups
- cognitive function as measured by Y-maze test [1]: protects against cognitive loss; also recorded: ameliorates the negative effect of a high-cholesterol diet on cognitive function

Structure (SMILES): CC[C@@H]([C@H](C)O)n1ncn(-c2ccc(N3CCN(c4ccc(OC[C@@H]5CO[C@@](Cn6cncn6)(c6ccc(F)cc6F)C5)cc4)CC3)cc2)c1=O [posaconazole]
- inhibition of the CYP27A1 enzyme (CYP27A1 enzyme): Inhibitors of the CYP27A1 enzyme
